This is an account of results in patent US9266876B2 (Actelion Pharmaceuticals Ltd., priority 2012, dated 2016).

pIC50: −log10 of the molar value.

Sequence of human CXCR3A (P49682 whole entry): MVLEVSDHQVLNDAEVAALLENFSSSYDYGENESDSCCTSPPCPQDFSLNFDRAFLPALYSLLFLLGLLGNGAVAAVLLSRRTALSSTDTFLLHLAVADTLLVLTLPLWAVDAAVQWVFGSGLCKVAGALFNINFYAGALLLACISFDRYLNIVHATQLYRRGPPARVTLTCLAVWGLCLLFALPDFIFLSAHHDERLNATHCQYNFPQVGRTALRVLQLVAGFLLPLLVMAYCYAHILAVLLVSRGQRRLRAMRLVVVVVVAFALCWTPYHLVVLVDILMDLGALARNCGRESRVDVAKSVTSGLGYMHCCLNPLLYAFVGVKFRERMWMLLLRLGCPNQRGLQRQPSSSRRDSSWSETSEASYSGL

The target of this test is human CXCR3A (Homo sapiens (Human), UniProt P49682). Nature of the test: FLIPR assay. The settings on record: CHO-K1 cells expressing the human CXCR3A coupled to Galpha(16); CXCL10 agonist 20 nM; Fluo-4-AM fluorescence; mean values if determined several times. In kind it is cell-based. The procedure:
The bioactivity of compounds is tested in a fluorometric imaging plate reader (FLIPR: Molecular Devices) using engineered CHO-K1 cells expressing the human CXCR3A coupled to a G protein (Galpha(16)). Cells are plated the day prior to bioassay in F12 medium supplemented with 10% FBS and G418 and hygromycin antibiotics to maintain recombinant selection. At the day of bioassay, cells are washed and dye loaded for one hour with Fluo-4-AM (Invitrogen) in Hanks Balanced Salt Solution (Invitrogen), buffered with 20 mM Hepes at pH 7.4 and sodium bicarbonate (0.015%), containing 5 mM probenecid. […] Cells are washed free of excess dye and 60 microliter of wash buffer is added. Stock solutions of test compounds are made up at a concentration of 10 mM in DMSO, and serially diluted in dilution buffer to concentrations required for inhibition dose response curves. After a 10 minute incubation period at 37° C., 10 microliters of each compound dilution are transferred from a compound plate to the plate containing the recombinant cells in the FLIPR instrument according to the manufacturer's instructions. Following basal readings, 10 microliter CXCL10 agonist at a concentration of 20 nM (from Peprotech) is added, again using the FLIPR instrument. Changes in fluorescence are monitored before and after addition of the test compounds. Emission peak values above base level after CXCL10 addition are exported after base line subtraction. The program XLfit is used to fit the data to a single site dose response curve and to calculate IC50 values.
One may read the pIC50 as the negative decadic logarithm of the IC50, by convention in mol/L. The low end stands for a high IC50, the high end for a low IC50. In turn, `C[C@@H]1CN(c2scnc2-c2nc3cc(Cl)ccc3[nH]2)CCN1C(=O)CN1CCc2ccccc21` [Example 145, 1-{(R)-4-[4-(5-Chloro-1H-benzoimidazol-2-yl)-thiazol-5-yl]-2-methyl-piperazin-1-yl}-2-(2,3-dihydro-indol-1-yl)-ethanone] showed a pIC50 of 7.96.

Compound `C[C@@H]1CN(c2scnc2-c2nc3c(F)cccc3[nH]2)CCN1C(=O)Cn1ccc2cccnc21` [Example 21, 1-{(R)-4-[4-(4-Fluoro-1H-benzoimidazol-2-yl)-thiazol-5-yl]-2-methyl-piperazin-1-yl}-2-pyrrolo[2,3-b]pyridin-1-yl-ethanone] had a pIC50 of 8.70.

In turn, `O=C(Cn1ccc2cccnc21)N1CCN(c2sc(Cl)nc2-c2nc3ccccc3[nH]2)CC1` [Example 42, 1-{4-[4-(1H-Benzoimidazol-2-yl)-2-chloro-thiazol-5-yl]-piperazin-1-yl}-2-pyrrolo[2,3-b]pyridin-1-yl-ethanone] gave a negative logarithm of the IC50 (pIC50) of 6.26.

As to `O=C(Cn1cnc2cccnc21)N1CCN(c2ncsc2-c2nc3ccccc3[nH]2)CC1` [compound 114, 1-{4-[5-(1H-Benzoimidazol-2-yl)-thiazol-4-yl]-piperazin-1-yl}-2-imidazo[4,5-b]pyridin-3-yl-ethanone, reference compound], the negative-log IC50 (pIC50) is 5.52.

For the compound `Cc1nc(-c2nc3ccccc3[nH]2)c(N2CCN(C(=O)Cn3ccc4cccnc43)CC2)s1` [Example 40, 1-{4-[4-(1H-Benzoimidazol-2-yl)-2-methyl-thiazol-5-yl]-piperazin-1-yl}-2-pyrrolo[2,3-b]pyridin-1-yl-ethanone], the negative-log IC50 (pIC50) was 7.70.

For the compound `Cc1ccc2onc(CC(=O)N3CCN(c4scnc4-c4nc5ccccc5[nH]4)C[C@H]3C)c2c1` [Example 131, 1-{(R)-4-[4-(1H-Benzoimidazol-2-yl)-thiazol-5-yl]-2-methyl-piperazin-1-yl}-2-(5-methyl-benzo[d]isoxazol-3-yl)-ethanone], the negative-log IC50 (pIC50) is 8.10.

On to `COc1ccc2onc(CC(=O)N3CCN(c4scnc4-c4nc5ccccc5[nH]4)CC3)c2c1` [Example 12, 1-{4-[4-(1H-Benzoimidazol-2-yl)-thiazol-5-yl]-piperazin-1-yl}-2-(5-methoxy-benzo[d]isoxazol-3-yl)-ethanone], for which the pIC50 was 6.50.

`Cc1c(Cl)ccc2[nH]c(-c3ncsc3N3CCN(C(=O)Cn4cnc5cccnc54)[C@H](C)C3)nc12` [Example 94, 1-{(R)-4-[4-(5-Chloro-4-methyl-1H-benzoimidazol-2-yl)-thiazol-5-yl]-2-methyl-piperazin-1-yl}-2-imidazo[4,5-b]pyridin-3-yl-ethanone] showed a pIC50 of 9.30.

`COc1cc2nc(-c3ncsc3N3CCN(C(=O)Cn4c(=O)n(C)c5ccccc54)CC3)[nH]c2cc1OC` [Example 36, 1-(2-{4-[4-(5,6-Dimethoxy-1H-benzoimidazol-2-yl)-thiazol-5-yl]-piperazin-1-yl}-2-oxo-ethyl)-3-methyl-1,3-dihydro-benzoimidazol-2-one] had a negative-log IC50 (pIC50) of 7.77.

`C[C@@H]1CN(c2scnc2-c2nc3ccccc3[nH]2)CCN1C(=O)CN1C(=O)C(=O)c2ccccc21` [Example 157, 1-(2-{(R)-4-[4-(1H-Benzoimidazol-2-yl)-thiazol-5-yl]-2-methyl-piperazin-1-yl}-2-oxo-ethyl)-1H-indole-2,3-dione] gave a negative logarithm of the IC50 (pIC50) of 8.40.

As to `C[C@@H]1CN(c2scnc2-c2nc3ccccc3[nH]2)CCN1C(=O)Cc1ccc2c(c1)NC(=O)CO2` [Example 122, 6-(2-{(R)-4-[4-(1H-Benzoimidazol-2-yl)-thiazol-5-yl]-2-methyl-piperazin-1-yl}-2-oxo-ethyl)-4H-benzo[1,4]oxazin-3-one], the pIC50 is 6.82.

In turn, `C[C@@H]1CN(c2scnc2-c2nc3c(F)c(F)ccc3[nH]2)CCN1C(=O)Cn1ccc2cccnc21` [Example 28, 1-{(R)-4-[4-(4,5-Difluoro-1H-benzoimidazol-2-yl)-thiazol-5-yl]-2-methyl-piperazin-1-yl}-2-pyrrolo[2,3-b]pyridin-1-yl-ethanone] showed a pIC50 of 9.00.

Turning to `Cc1ccc2ccn(CC(=O)N3CCN(c4scnc4-c4nc5ccccc5[nH]4)CC3)c2n1` [Example 70, 1-{4-[4-(1H-Benzoimidazol-2-yl)-thiazol-5-yl]-piperazin-1-yl}-2-(6-methyl-pyrrolo[2,3-b]pyridin-1-yl)-ethanone], the pIC50 is 7.89.

With `COc1ccccc1-c1nc(-c2nc3ccccc3[nH]2)c(N2CCN(C(=O)Cn3cnc4cccnc43)[C@H](C)C2)s1` [Example 82, 1-{(R)-4-[4-(1H-Benzoimidazol-2-yl)-2-(2-methoxy-phenyl)-thiazol-5-yl]-2-methyl-piperazin-1-yl}-2-imidazo[4,5-b]pyridin-3-yl-ethanone], the negative-log IC50 (pIC50) was 7.02.

The compound `C[C@H]1CN(c2scnc2-c2nc3ccccc3[nH]2)CCN1C(=O)Cn1cnc2cccnc21` [Example 47, 1-{(S)-4-[4-(1H-Benzoimidazol-2-yl)-thiazol-5-yl]-2-methyl-piperazin-1-yl}-2-imidazo[4,5-b]pyridin-3-yl-ethanone] showed a negative-log IC50 (pIC50) of 7.74.

In turn, `C[C@@H]1CN(c2scnc2-c2nc3cc(Cl)c(F)cc3[nH]2)CCN1C(=O)Cn1cnc2cccnc21` [Example 89, 1-{(R)-4-[4-(5-Chloro-6-fluoro-1H-benzoimidazol-2-yl)-thiazol-5-yl]-2-methyl-piperazin-1-yl}-2-imidazo[4,5-b]pyridin-3-yl-ethanone] gave a pIC50 of 9.00.

`C[C@@H]1CN(c2scnc2-c2nc3ccccc3[nH]2)CCN1C(=O)Cc1cn(C)c2ccccc12` [Example 125, 1-{(R)-4-[4-(1H-Benzoimidazol-2-yl)-thiazol-5-yl]-2-methyl-piperazin-1-yl}-2-(1-methyl-1H-indol-3-yl)-ethanone] showed a negative logarithm of the IC50 (pIC50) of 7.15.

`Cn1c(=O)n(CC(=O)N2CCN(c3scnc3-c3nc4ccc(CO)cc4[nH]3)CC2)c2ccccc21` [Example 76, 1-(2-{4-[4-(6-Hydroxymethyl-1H-benzoimidazol-2-yl)-thiazol-5-yl]-piperazin-1-yl}-2-oxo-ethyl)-3-methyl-1,3-dihydro-benzoimidazol-2-one] gave a pIC50 of 8.00.

The compound `O=C(Cn1ccc2ccc(F)cc21)N1CCN(c2scnc2-c2nc3ccccc3[nH]2)CC1` [Example 56, 1-{4-[4-(1H-Benzoimidazol-2-yl)-thiazol-5-yl]-piperazin-1-yl}-2-(6-fluoro-indol-1-yl)-ethanone] showed a pIC50 of 8.40.

`COc1ccc2ccn(CC(=O)N3CCN(c4scnc4-c4nc5ccccc5[nH]4)CC3)c2n1` [Example 69, 1-{4-[4-(1H-Benzoimidazol-2-yl)-thiazol-5-yl]-piperazin-1-yl}-2-(6-methoxy-pyrrolo[2,3-b]pyridin-1-yl)-ethanone] had a negative logarithm of the IC50 (pIC50) of 7.16.

As for `Cc1ccccc1-c1nc(-c2nc3ccccc3[nH]2)c(N2CCN(C(=O)Cn3cnc4cccnc43)[C@H](C)C2)s1` [Example 81, 1-{(R)-4-[4-(1H-Benzoimidazol-2-yl)-2-o-tolyl-thiazol-5-yl]-2-methyl-piperazin-1-yl}-2-imidazo[4,5-b]pyridin-3-yl-ethanone], the pIC50 was 7.64.
